Source: patent US20110098325A1, “PYRIDINE BENZAMIDES AND PYRAZINE BENZAMIDES USED AS PKD INHIBITORS” (CANCER RESEARCH TECHNOLOGY LIMITED, priority 2006, published 2011)

Molecular target: T1, Human full length PKD1 (Homo sapiens, UniProt Q15139)
T1 construct: Human full length PKD1 at ˜100 μg/mL purchased from Upstate Ltd; purchased Upstate Ltd 14-508
T1 sequence (Q15139 1-912): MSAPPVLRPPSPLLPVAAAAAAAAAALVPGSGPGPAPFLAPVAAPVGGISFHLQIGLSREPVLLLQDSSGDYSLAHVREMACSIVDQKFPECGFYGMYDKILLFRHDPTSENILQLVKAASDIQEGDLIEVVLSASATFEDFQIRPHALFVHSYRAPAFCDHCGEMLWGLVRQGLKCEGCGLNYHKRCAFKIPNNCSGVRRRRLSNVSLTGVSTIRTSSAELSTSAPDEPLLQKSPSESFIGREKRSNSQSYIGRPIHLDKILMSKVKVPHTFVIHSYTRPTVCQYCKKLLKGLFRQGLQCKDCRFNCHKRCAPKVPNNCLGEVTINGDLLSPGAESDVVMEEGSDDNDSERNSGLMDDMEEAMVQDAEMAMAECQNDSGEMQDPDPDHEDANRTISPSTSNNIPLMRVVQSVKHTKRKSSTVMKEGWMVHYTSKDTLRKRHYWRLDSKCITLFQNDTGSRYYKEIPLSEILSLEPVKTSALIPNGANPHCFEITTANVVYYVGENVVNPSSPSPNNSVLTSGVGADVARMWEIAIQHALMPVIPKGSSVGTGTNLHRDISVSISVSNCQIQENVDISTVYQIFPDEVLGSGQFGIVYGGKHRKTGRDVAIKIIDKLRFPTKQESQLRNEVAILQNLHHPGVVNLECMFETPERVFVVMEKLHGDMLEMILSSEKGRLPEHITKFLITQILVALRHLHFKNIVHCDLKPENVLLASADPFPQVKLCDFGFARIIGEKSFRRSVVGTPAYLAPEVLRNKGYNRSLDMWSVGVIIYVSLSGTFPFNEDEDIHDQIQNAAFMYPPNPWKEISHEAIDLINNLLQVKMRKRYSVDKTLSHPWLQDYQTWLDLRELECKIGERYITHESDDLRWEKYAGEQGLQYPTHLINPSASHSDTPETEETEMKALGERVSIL
Experiment: PKD1 (Human Full Length) Enzyme Activity Assay (IMAP fluorescence polarisation)
Type: biochemical
Conditions: 10 μM ATP, 25 minutes, room temperature
Procedure: Kinase Assay Reaction Buffer: This consisted of 0.22 μM filtered 25 mM HEPES and 2 mM MgCl2 pH 7.5.
Kinase Enzyme: Human full length PKD1 at ˜100 μg/mL purchased from Upstate Ltd (Product code 14-508) was obtained from aliquots stored at −70° C. It was prepared with a final concentration of 0.3 μg/mL by diluting 1:300 in Reaction Buffer (30 μL per 9 mL-5 mL per plate with an additional 4 mL dead volume) and vortexing prior to use.
Substrate: Fluorescein labelled glycogen synthase-derived peptide (FI)-KKLNRTLSVA (also known as MAPKAP K2 substrate) was obtained from Molecular Devices (Product code R7127). […]
The fluorescence polarisation of the substrate in each well was recorded using an analyst microplate reader (Molecular Devices) with a single read at Ex485 Em535 (Analyst settings: Z Height 5 mm, G Factor 0.95, Reads/well 1, Integration 100000 μs, Gain Sensitivity 2).
Percentage inhibition was calculated based on activity of the test sample minus the average values in the blank wells relative to the average values measured in control wells minus the average values in the blank wells.
IC50 values were calculated from 10 point dose sigmoid ‘dose-response’ curves using Xlfit software (IDBS inc, USA). […]

IC50 [nM] | SMILES
4 | COc1cc(-c2nc(-c3cccc(C(=O)NCCN(C)C)c3)cnc2N)ccc1O [X-017, 3-[5-Amino-6-(4-hydroxy-3-methoxy-phenyl)-pyrazin-2-yl]-N-(2-dimethylamino-ethyl)-benzamide]
6 | COc1cc(-c2cc(-c3cccc(C(=O)NCCN(C)C)c3)cnc2N)ccc1O [Y-059, 3-[6-Amino-5-(4-hydroxy-3-methoxy-phenyl)-pyridin-3-yl]-N-(2-dimethylamino-ethyl)-benzamide]
